# Assays:
# [1] = ABTS radical cation assay (TEAC)
# Protocol: (§1) The surfactin antioxidant activity was measured using ABTS, DPPH and FRAP assays. Each measurement was performed in triplicate. The ABTS assay was conducted according to Re et al.. In the first instance, radical cation (ABTS^•+) solution was prepared by mixing 7 mM ABTS stock solution (Sigma-Aldrich) with 2.45 mM potassium persulfate solution (Sigma-Aldrich). The mixture was incubated in the dark at room temperature for 12–16 h. Then, the reagent absorbance was adjusted to 0.7 (±0.02) at 734 nm, using distilled water as a blank. The antioxidant activity of the biosurfactant was determined by mixing 10 μL of surfactin (1 mg/mL) with 990 μL of ABTS^•+ solution. The absorbance was measured after 5 min incubation in the dark, using the Spark multimode microplate leader (Tecan Group Ltd., Männedorf, Switzerland), at 734 nm. The standard curve was prepared for Trolox ethanol solution (Sigma-Aldrich, St. Louis, MO, USA) in the range of 0–2000 μM. The activity of surfactin was expressed as the Trolox equivalent antioxidant capacity (TEAC [µM/g]).
# [2] = DPPH free radical scavenging (TEAC)
# Protocol: as §1, with “The standard curve was prepared for Trolox ethanol solution (Sigma-Aldrich, St. Louis, MO, USA) in the range of 0–2000 μM.” left out
# In addition, the antioxidant activity of surfactin, expressed as the ability to scavenge DPPH free radicals, was investigated according to Xu et al.. […] The sample was centrifuged (12000 rpm) and the absorbance was measured using the Spark multimode microplate leader (Tecan Group Ltd., Männedorf, Switzerland) at 517 nm. The antioxidant activity of surfactin was expressed as Trolox equivalent (TEAC [µM/g]). […]
# [3] = Ferric reducing antioxidant power (FRAP, TEAC)
# Protocol: as §1
# Finally, the FRAP assay was conducted according to Benzie et al.. The reaction, performed at pH = 3.6, involved the reduction of Fe^3+ to Fe^2+ in the presence of 2,4,6-trypyridyl-s-triazine, followed by the formation of a colored complex. […]
# [4] = test system: angiotensin-converting enzyme (ACE); assay: ACE-inhibitory activity assay; format: biochemical
# Protocol: The ACE-inhibitory activity assay was performed according to Udenigwe and Aluko [56] and quantified by a regression analysis of ACE-inhibitory activity (%) versus surfactin concentration. The IC50 value, i.e., the surfactin concentration (µg/mL) that causes 50% inhibition of ACE activity, was determined. The assay was carried out in triplicate.
# ACE in serum = conditions: HFFD rats; cited from earlier work
# Protocol: Biosurfactants’ inhibitory activity was analyzed in vitro as well as in vivo, using an animal model, in the work of Zouari et al.. […] Moreover, the administration of B. subtilis SPB1 lipopeptides or atorvastatin in vivo, to hypercaloric high-fat–high-fructose diet (HFFD) rats, decr ...
Molecule,"TEAC, ABTS ([1]; 10 μL surfactin (1 mg/mL) + 990 μL ABTS•+, 5 min in the dark, 734 nm, Trolox standard 0–2000 μM, triplicate) [µM/g]","antioxidant activity (ABTS), in words ([1]; surfactin 1 mg/mL)","TEAC, DPPH ([2]; 10 μL surfactin (1 mg/mL) + 190 μL 0.1 mM DPPH in ethanol, 30 min in the dark, 517 nm, Trolox standard 0–1000 μM, triplicate) [µM/g]","antioxidant activity (DPPH), in words ([2]; surfactin 1 mg/mL)","TEAC, FRAP ([3]; 50 μL surfactin (1 mg/mL) + 150 μL working solution, pH 3.6, 10 min, room temperature, 593 nm, Trolox standard, triplicate) [µM/g]","antioxidant activity (FRAP), in words ([3]; surfactin 1 mg/mL)","ACE inhibition, in words [4]","IC50, ACE-inhibitory activity ([4]; regression of ACE-inhibitory activity (%) versus surfactin concentration, triplicate) [µg/mL]",reduction in ACE activity (ACE in serum) [%]
surfactin,3.77 ± 0.22,trace antioxidant activity,11.67 ± 0.8,trace antioxidant activity,0.76 ± 0.096,trace antioxidant activity,strong inhibitory effect against ACE activity,620 ± 40,
CC(C)c1c(C(=O)Nc2ccccc2)c(-c2ccccc2)c(-c2ccc(F)cc2)n1CC[C@@H](O)C[C@@H](O)CC(=O)O [atorvastatin],,,,,,,,,24

# Reference: paper PMC9505973, “Sustainable Production of Biosurfactant from Agro-Industrial Oil Wastes by Bacillus subtilis and Its Potential Application as Antioxidant and ACE Inhibitor” (International Journal of Molecular Sciences, 2022)
